According to publication PMC6632053, “Incorporation of Putative Helix-Breaking Amino Acids in the Design of Novel Stapled Peptides: Exploring Biophysical and Cellular Permeability Properties” (Molecules, 2019):
Read-outs that look alike come from different tables or passages of the source. Bridge positions count the residues as written; N and C are the ends. Square brackets hold non-standard residues; d marks the D form. Peptide text beside a SMILES is read from it. Lys(N3) = [N-]=[N+]=NCCCC[C@H](N)C(=O)O; R8 = C=CCCCCCC[C@@](C)(N)C(=O)O; Cba = N[C@@H](CC1CCC1)C(=O)O; S5 = C=CCCC[C@](C)(N)C(=O)O; βAla = NCCC(=O)O

How the values were obtained:
[1] = target: T1, human Mdm2 1–125 (Homo sapiens, UniProt Q00987); experiment: Mdm2 binding assay (competitive fluorescence anisotropy/polarization); conditions: competitive fluorescence polarization, read-out: Mdm2 (nM), Mdm2 binding (Kd)
T1 construct: GST (N); His6 (internal); TEV cleavage site ENLYFQG (internal); made in house; host or cells: Escherichia coli BL21 (DE3) Rosetta T1R
T1 sequence (Q00987 with tags, fused parts or gaps): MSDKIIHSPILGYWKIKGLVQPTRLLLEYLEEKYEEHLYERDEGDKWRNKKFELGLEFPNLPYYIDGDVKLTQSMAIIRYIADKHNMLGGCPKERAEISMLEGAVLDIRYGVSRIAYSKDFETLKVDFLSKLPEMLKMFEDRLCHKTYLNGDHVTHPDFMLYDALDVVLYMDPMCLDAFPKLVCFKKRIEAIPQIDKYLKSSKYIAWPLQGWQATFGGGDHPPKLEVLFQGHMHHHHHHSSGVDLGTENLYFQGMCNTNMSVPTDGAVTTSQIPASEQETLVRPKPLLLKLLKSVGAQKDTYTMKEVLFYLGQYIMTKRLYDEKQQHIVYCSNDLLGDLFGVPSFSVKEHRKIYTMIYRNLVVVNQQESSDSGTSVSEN
Protocol: The TEV (tobacco etch virus) cleavage site was changed from ENLYFQS to ENLYFQG to give a fusion protein with the following sequence:
Titrations were carried out with the concentration of Mdm2 held constant at 250 nM and the labeled peptide at 50 nM. The competing molecules were then titrated against the complex of the FAM-labeled peptide and protein. Apparent Kd values were determined by fitting the experimental data to the equations shown below:(2) r=r0+(rb−r0)×2(d^2−3e)cos(θ/3)−9/3Kd1+2(d^2−3e)cos(θ/3)−dd=Kd1+Kd2+[L]st+[L]t−[P]te=([L]t−[P]t)Kd1+([L]st−[P]t)Kd2+Kd1Kd2f=−Kd1Kd2[P]tθ=arcos[−2d^3+9de−27f/2(d^2−3e)^3] where [L]st and [L]t denote labeled ligand and total unlabeled ligand input concentrations, respectively. Kd2 is the dissociation constant of the interaction between the unlabeled ligand and the protein. In all competition experiments, it was assumed that [P]t > [L]st, otherwise considerable amounts of free labeled ligand would always be present and would interfere with measurements. Kd1 is the apparent Kd for the labeled peptide used and was experimentally determined as described in the previous paragraph. The FAM-labeled peptide was dissolved in dimethyl sulfoxide (DMSO) at 1 mM and diluted into the experimental buffer. Readings were carried out with an Envision Multilabel Reader (PerkinElmer). Experiments were carried out in PBS (2.7 mM KCl, 137mM NaCl, 10 mM Na2HPO4, and 2 mM KH2PO4 (pH 7.4)) and 0.1% Tween 20 buffer. All titrations were carried out in triplicate. Curve-fitting was carried out using Prism 4.0 (GraphPad). […] Negative control titrations of the ligands under investigation were also carried out with the fluorescently labeled peptide (in the absence of Mdm2) to ensure no interactions were occurring between the ligands and the FAM-labeled peptide.

[2] = tested on: p53 responsive β-lactamase reporter in HCT116 cells; experiment: p53 beta-lactamase reporter gene cellular functional assay; format: cell-based; conditions: p53 reporter assay, HCT116, read-out: Cellular (µM), cellular activity (EC50)
Protocol: HCT116 cells were stably transfected with a p53 responsive β-lactamase reporter and were seeded into a 384-well plate at a density of 8000 cells per well. Cells were maintained in McCoy’s 5A Medium with 10% fetal bovine serum (FBS), Blasticidin, and Penicillin/Streptomycin. The cells were incubated overnight, followed by removal of cell growth media and replacement with Opti-MEM either containing 0% FBS or 10% FBS. […] The final working concentration of DMSO was 0.5%. β-lactamase activity was detected using the ToxBLAzer Dual Screen (Invitrogen), as per the manufacturer’s instructions. Measurements were made using the Envision multiplate reader (Perkin–Elmer).

[3] = Circular dichroism (CD) α-helicity; format: physicochemical; conditions: for Helicity (%): CD of free peptide, 25 °C, 1 mM Hepes pH 7.4, 5% methanol
Protocol: A total of 5 µL of the 10 mM stock peptide was mixed with 45 µL of 100% methanol, and dried for 2 h in the SpeedVac concentrator (Thermo Scientific). The dried peptide was reconstituted in a buffer (1 mM Hepes pH 7.4 and 5% methanol) to a concentration of 1 mM. The peptide sample was placed in a quartz cuvette with a path length of 0.2 cm. The peptide concentration was determined by the absorbance of the peptide at […]. The CD spectrum was recorded from 300 to 190 nm using the Chirascan-plus qCD machine (Applied Photophysics, Surrey, UK), at 25 °C. All experiments were done in duplicates. The CD spectrum was converted to mean residue ellipticity, before deconvolution and estimation of the secondary structure components of the peptide using the CDNN software (distributed by Applied Photophysics).

Row | Compound | Kd ([1]; Table 2) | EC50 ([2]; Table 2) | Helicity (%) ([3]; Table 2) | Kd ([1]; Table 1) | EC50 ([2]; Table 1) | Helicity (%) ([3]; Table 1) | α-helicity by CD [3]
1 | CC(=O)N[C@@H](CCCCN=[N+]=[N-])C(=O)NCCC(=O)N[C@@H](CC(C)C)C(=O)N[C@H](C(=O)N[C@@H](Cc1ccccc1)C(=O)N[C@]1(C)CCCCCCC=CCCC[C@@](C)(C(=O)N[C@@H](CO)C(=O)N(C)[C@@H](C)C(=O)N[C@@H](C)C(N)=O)NC(=O)[C@H](CC2CCC2)NC(=O)[C@H](CCC(N)=O)NC(=O)[C@H](C)NC(=O)[C@H](Cc2c[nH]c3ccccc23)NC(=O)[C@H](Cc2ccc(O)cc2)NC(=O)[C@H](CCC(=O)O)NC1=O)[C@@H](C)O [A13(N-methyl L-Ala)] | 10 nM | 1.6 µM | 38.6% |  |  |  | 
2 | CC(=O)N[C@@H](CCCCN=[N+]=[N-])C(=O)NCCC(=O)N[C@@H](CC(C)C)C(=O)N[C@H](C(=O)N[C@@H](Cc1ccccc1)C(=O)N[C@]1(C)CCCCCCC=CCCC[C@@](C)(C(=O)N[C@@H](CO)C(=O)N[C@@H](C)C(=O)N[C@@H](C)C(N)=O)NC(=O)[C@H](CC2CCC2)NC(=O)[C@H](CCC(N)=O)NC(=O)[C@H](C)NC(=O)[C@H](Cc2c[nH]c3ccccc23)NC(=O)[C@H](Cc2ccc(O)cc2)NC(=O)CNC1=O)[C@@H](C)O [Peptide E5G] | 61.8 nM | 0.26 µM | 28.6% |  |  |  | 28.6%
3 | CC(=O)N[C@@H](CCCCN=[N+]=[N-])C(=O)NCCC(=O)NCC(=O)N[C@H](C(=O)N[C@@H](Cc1ccccc1)C(=O)N[C@]1(C)CCCCCCC=CCCC[C@@](C)(C(=O)N[C@@H](CO)C(=O)N[C@@H](C)C(=O)N[C@@H](C)C(N)=O)NC(=O)[C@H](CC2CCC2)NC(=O)[C@H](CCC(N)=O)NC(=O)CNC(=O)[C@H](Cc2c[nH]c3ccccc23)NC(=O)[C@H](Cc2ccc(O)cc2)NC(=O)CNC1=O)[C@@H](C)O [L1G, E5G, A8G] (Ac-[Lys(N3)][βAla]GTF[R8]GYWGQ[Cba][S5]SAA-NH2; staple 6-13) | 49.8 nM | 1.7 µM | 20.4% |  |  |  | 20.4%
4 | CC(=O)N[C@@H](CC(C)C)C(=O)N[C@H](C(=O)N[C@@H](Cc1ccccc1)C(=O)NC(C)(C)C(=O)N[C@@H](CCC(=O)O)C(=O)N[C@@H](Cc1ccc(O)cc1)C(=O)N[C@@H](Cc1c[nH]c2ccccc12)C(=O)N[C@H](CCC(N)=O)C(=O)N[C@@H](CC(C)C)C(=O)N[C@@H](CC1CCC1)C(=O)NC(C)(C)C(=O)N[C@@H](CO)C(=O)N[C@@H](C)C(=O)N[C@@H](C)C(N)=O)[C@@H](C)O [Linear Q8(D-Gln)] |  |  |  | 119 nM | > 50 µM | 21.8% | 
5 | CC(=O)N[C@@H](CCCCN=[N+]=[N-])C(=O)NCCC(=O)N[C@@H](CC(C)C)C(=O)N[C@H](C(=O)N[C@@H](Cc1ccccc1)C(=O)N[C@]1(C)CCCCCCC=CCCC[C@@](C)(C(=O)N[C@@H](CO)C(=O)N[C@@H](C)C(=O)N[C@@H](C)C(N)=O)NC(=O)[C@H](CC2CCC2)NC(=O)CNC(=O)[C@H](C)NC(=O)[C@H](Cc2c[nH]c3ccccc23)NC(=O)[C@H](Cc2ccc(O)cc2)NC(=O)[C@H](CCC(=O)O)NC1=O)[C@@H](C)O [Peptide Q9G] | 42 nM | 0.68 µM | 38.8% |  |  |  | 
6 | CC(=O)N[C@@H](CC(C)C)C(=O)N[C@H](C(=O)N[C@@H](Cc1ccccc1)C(=O)NC(C)(C)C(=O)N[C@@H](CCC(=O)O)C(=O)N[C@@H](Cc1ccc(O)cc1)C(=O)N[C@@H](Cc1c[nH]c2ccccc12)C(=O)N[C@@H](CCC(N)=O)C(=O)N[C@H](CC(C)C)C(=O)N[C@@H](CC1CCC1)C(=O)NC(C)(C)C(=O)N[C@@H](CO)C(=O)N[C@@H](C)C(=O)N[C@@H](C)C(N)=O)[C@@H](C)O [Linear L9(D-Leu)] |  |  |  | 88 nM | > 50 µM | 19.7% | 
7 | CC(=O)N[C@@H](CCCCN=[N+]=[N-])C(=O)NCCC(=O)N1CCC[C@H]1C(=O)N[C@H](C(=O)N[C@@H](Cc1ccccc1)C(=O)N[C@]1(C)CCCCCCC=CCCC[C@@](C)(C(=O)N[C@@H](CO)C(=O)N[C@@H](C)C(=O)N[C@@H](C)C(N)=O)NC(=O)[C@H](CC2CCC2)NC(=O)[C@H](CCC(N)=O)NC(=O)[C@H](C)NC(=O)[C@H](Cc2c[nH]c3ccccc23)NC(=O)[C@H](Cc2ccc(O)cc2)NC(=O)[C@H](CCC(=O)O)NC1=O)[C@@H](C)O [Peptide L1P] | 21.9 nM | 0.75 µM | 41.6% |  |  |  | 
8 | CC(=O)N[C@@H](CC(C)C)C(=O)N[C@H](C(=O)N[C@@H](Cc1ccccc1)C(=O)N[C@]1(C)CCCCCCC=CCCC[C@@](C)(C(=O)N[C@@H](CO)C(=O)N[C@@H](C)C(=O)N[C@@H](C)C(N)=O)NC(=O)[C@H](CC2CCC2)NC(=O)[C@H](CC(C)C)NC(=O)[C@H](CCC(N)=O)NC(=O)[C@H](C)NC(=O)[C@H](Cc2ccc(O)cc2)NC(=O)[C@H](CCC(=O)O)NC1=O)[C@@H](C)O [Peptide W7A] (Ac-LTF[R8]EYAQL[Cba][S5]SAA-NH2; staple 4-11) |  |  |  | 5090 nM | 8.8 µM |  | 

The remaining lines, values ahead:

Row | Kd ([1]; Table 2) | EC50 ([2]; Table 2) | Helicity (%) ([3]; Table 2) | Kd ([1]; Table 1) | EC50 ([2]; Table 1) | Helicity (%) ([3]; Table 1) | α-helicity by CD [3] | Compound
9 |  |  |  | 136 nM | 3.4 µM | 40.7% |  | CC(=O)N[C@@H](CC(C)C)C(=O)N[C@@H](C(=O)N[C@@H](Cc1ccccc1)C(=O)N[C@]1(C)CCCCCCC=CCCC[C@@](C)(C(=O)N[C@@H](CO)C(=O)N[C@@H](C)C(=O)N[C@@H](C)C(N)=O)NC(=O)[C@H](CC2CCC2)NC(=O)[C@H](CC(C)C)NC(=O)[C@H](CCC(N)=O)NC(=O)[C@H](Cc2c[nH]c3ccccc23)NC(=O)[C@H](Cc2ccc(O)cc2)NC(=O)[C@H](CCC(=O)O)NC1=O)[C@H](C)O [T2(D-Thr)]
10 |  |  |  | 26.5 nM | 0.1 µM | 33.4% |  | CC(=O)N[C@@H](CC(C)C)C(=O)N[C@H](C(=O)N[C@@H](Cc1ccccc1)C(=O)N[C@]1(C)CCCCCCC=CCCC[C@@](C)(C(=O)N[C@@H](CO)C(=O)N[C@@H](C)C(=O)N[C@@H](C)C(N)=O)NC(=O)[C@H](CC2CCC2)NC(=O)[C@H](CC(C)C)NC(=O)[C@H](C)NC(=O)[C@H](Cc2c[nH]c3ccccc23)NC(=O)[C@H](Cc2ccc(O)cc2)NC(=O)[C@H](CCC(=O)O)NC1=O)[C@@H](C)O [Peptide Q8A]
11 |  |  |  | 30 nM | 0.6 µM | 41.0% |  | CC(=O)N[C@@H](CC(C)C)C(=O)N[C@H](C(=O)N[C@@H](Cc1ccccc1)C(=O)N[C@]1(C)CCCCCCC=CCCC[C@@](C)(C(=O)N[C@@H](CO)C(=O)N[C@@H](C)C(=O)N[C@@H](C)C(N)=O)NC(=O)[C@H](CC2CCC2)NC(=O)[C@H](CC(C)C)NC(=O)[C@H](CCC(N)=O)NC(=O)[C@@H](Cc2c[nH]c3ccccc23)NC(=O)[C@H](Cc2ccc(O)cc2)NC(=O)[C@H](CCC(=O)O)NC1=O)[C@@H](C)O [W6(D-Trp) (MP-384)]
12 |  |  |  | 6480 nM | > 50 µM | 51.8% |  | CC(=O)N[C@@H](CC(C)C)C(=O)N[C@H](C(=O)N[C@H](Cc1ccccc1)C(=O)N[C@]1(C)CCCCCCC=CCCC[C@@](C)(C(=O)N[C@@H](CO)C(=O)N[C@@H](C)C(=O)N[C@@H](C)C(N)=O)NC(=O)[C@H](CC2CCC2)NC(=O)[C@H](CC(C)C)NC(=O)[C@H](CCC(N)=O)NC(=O)[C@H](Cc2c[nH]c3ccccc23)NC(=O)[C@H](Cc2ccc(O)cc2)NC(=O)[C@H](CCC(=O)O)NC1=O)[C@@H](C)O [F3(D-Phe)]
13 |  |  |  | 1650 nM | 8.1 µM |  |  | CC(=O)N[C@@H](CC(C)C)C(=O)N[C@H](C(=O)N[C@@H](Cc1ccccc1)C(=O)N[C@]1(C)CCCCCCC=CCCC[C@@](C)(C(=O)N[C@@H](CO)C(=O)N[C@@H](C)C(=O)N[C@@H](C)C(N)=O)NC(=O)[C@@H](CC2CCC2)NC(=O)[C@H](CC(C)C)NC(=O)[C@H](CCC(N)=O)NC(=O)[C@H](Cc2c[nH]c3ccccc23)NC(=O)[C@H](Cc2ccc(O)cc2)NC(=O)[C@H](CCC(=O)O)NC1=O)[C@@H](C)O [Cba10(D-Cba)]
